Source: patent US20070259893A1, “Pyrazolopyrimidines” (BAYER CROPSCIENCE AKTIENGESELLSCHAFT, priority 2003, published 2007)

Tests used:
logP by HPLC = assay type: physicochemical
Botrytis cinerea = assay: Botrytis test (bean)/protective; assay type: in vivo; settings: bean plants, protective spray, application rate 500 g/ha, evaluated 2 days after inoculation
Protocol: Botrytis Test (Bean)/Protective
Solvents: 24.5 parts by weight of acetone
• 24.5 parts by weight of dimethylacetamide Emulsifier: 1.0 part by weight of alkylaryl polyglycol ether
To produce a suitable preparation of active compound, 1 part by weight of active compound is mixed with the stated amount of solvents and emulsifier, and the concentrate is diluted with water to the desired concentration.
To test for protective activity, young plants are sprayed with the preparation of active compound at the stated application rate. After the spray coating has dried on, 2 small pieces of agar colonized by Botrytis cinerea are placed onto each leaf. The inoculated plants are placed in a dark chamber at about 20° C. and 100% relative atmospheric humidity.
The size of the infected areas on the leaves is evaluated 2 days after the inoculation. 0% means an efficacy which corresponds to that of the control, whereas an efficacy of 100% means that no infection is observed.

Row | chromatographic logP (logP by HPLC) | SMILES | efficacy (Botrytis cinerea)
1 | 5.08 | CC(C)C(C)Nc1c(-c2ccc(F)cc2Cl)c(Cl)nc2c(C(=O)C(F)(F)F)cnn12 (stereo not shown) [Example 2] | –
2 | 4.92 | CC(Nc1c(-c2ccc(F)cc2Cl)c(Cl)nc2c(C#N)cnn12)C(C)(C)C (stereo not shown) [Example 4] | –

Row | SMILES | chromatographic logP (logP by HPLC) | efficacy (Botrytis cinerea)
3 | CC1CCN(c2c(-c3ccc(F)cc3Cl)c(Cl)nc3c(C(=O)C(F)(F)F)cnn23)CC1 [Example 1, 3-trifluoroacetyl-5-chloro-6-(2-chloro-4-fluorophenyl)-7-(4-methylpiperidino)-pyrazolo[1,5-a]pyrimidine] | 5.44 | more than 90%
